Assay results as given in the supplement of paper PMC10307832.

Key:
Assay in all cases: relative viability (nuclei count vs DMSO), 5 days (fraction); higher = more cells survive
[1] = compound: O=C(Nc1cccc(C(F)(F)F)c1)Nc1cc(S(=O)(=O)NC2CC2)ccc1-c1ccsc1 [AGI-6780] + C[C@]1(O)C[C@@H](c2nc(-c3ccc4ccc(-c5ccccc5)nc4c3)c3c(N)nccn32)C1 [Linsitinib] (partner 1 µM)
Outline: (§1)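 A single step with final 0.05% Triton X-100, 1% formaldehyde and 1 ug/ml Hoechst fixed the cells and stained nuclei 5 days after treatment. Lung cancer cell lines in 1536-well plates had been treated by pin tool the day after seeding with one drug alone or a fixed anchor-drug dose plus five library-drug doses (not always all listed) in √10 steps, and nuclei were counted on 4× images. Relative viability is the ratio of nuclei in treated wells to nuclei in vehicle wells, taken as the median of duplicate plates.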

[2] = compound: O=C(Nc1cccc(C(F)(F)F)c1)Nc1cc(S(=O)(=O)NC2CC2)ccc1-c1ccsc1 [AGI-6780] + CC1(C)CCC(c2ccc(Cl)cc2)=C(CN2CCN(c3ccc(C(=O)NS(=O)(=O)c4ccc(N[C@H](CCN5CCOCC5)CSc5ccccc5)c(S(=O)(=O)C(F)(F)F)c4)cc3)CC2)C1 [Navitoclax] (partner 0.5 µM)
Outline: as §1

[3] = compound: O=C(Nc1cccc(C(F)(F)F)c1)Nc1cc(S(=O)(=O)NC2CC2)ccc1-c1ccsc1 [AGI-6780] + CCNC(=O)c1noc(-c2cc(C(C)C)c(O)cc2O)c1-c1ccc(CN2CCOCC2)cc1 [Luminespib] (partner 0.01 µM)
Outline: as §1

[4] = compound: O=C(Nc1cccc(C(F)(F)F)c1)Nc1cc(S(=O)(=O)NC2CC2)ccc1-c1ccsc1 [AGI-6780] + COc1cc2c(Oc3ccc(NC(=O)C4(C(=O)Nc5ccc(F)cc5)CC4)cc3F)ccnc2cc1OCCCN1CCOCC1 [Foretinib] (partner 0.25 µM)
Outline: as §1

Row | Cell Line | relative viability ([1]; first compound 0.08 µM) | relative viability ([1]; first compound 0.253 µM) | relative viability ([1]; first compound 0.8 µM) | relative viability ([1]; first compound 2.53 µM) | relative viability ([1]; first compound 8 µM) | relative viability ([2]; first compound 0.08 µM) | relative viability ([2]; first compound 0.253 µM) | relative viability ([2]; first compound 0.8 µM) | relative viability ([2]; first compound 2.53 µM) | relative viability ([2]; first compound 8 µM) | relative viability ([3]; first compound 0.08 µM) | relative viability ([3]; first compound 0.253 µM) | relative viability ([3]; first compound 0.8 µM) | relative viability ([3]; first compound 2.53 µM) | relative viability ([3]; first compound 8 µM) | relative viability ([4]; first compound 0.08 µM) | relative viability ([4]; first compound 0.253 µM) | relative viability ([4]; first compound 0.8 µM) | relative viability ([4]; first compound 2.53 µM) | relative viability ([4]; first compound 8 µM)
1 | HCC-15 | 0.897 | 0.867 | 0.941 | 0.777 | 0.821 | 0.727 | 0.698 | 0.743 | 0.641 | 0.684 | 0.407 | 0.247 | 0.274 | 0.38 | 0.3 | 1.1 | 1.03 | 1.1 | 0.871 | 0.968
2 | HCC-44 | 0.714 | 0.73 | 0.693 | 0.622 | 0.597 | 0.969 | 1.02 | 0.94 | 0.856 | 1.11 | 1.18 | 1.01 | 1.16 | 1.09 | 0.982 |  |  |  |  | 
3 | HCC-78 | 0.592 | 0.491 | 0.587 | 0.561 | 0.537 | 0.845 | 0.789 | 0.9 | 0.779 | 0.801 |  |  |  |  |  |  | 0.53 | 0.676 | 0.606 | 0.688
4 | HCC-366 | 0.891 | 0.682 | 0.637 | 0.536 | 0.568 | 1.03 | 1.12 | 0.984 | 0.944 | 1.05 |  |  |  |  |  | 0.857 | 0.951 | 0.96 | 0.881 | 0.828
5 | HCC-827 | 1.01 | 0.96 | 0.872 | 0.989 | 0.942 | 1.09 | 1.06 | 1 | 1.01 | 0.935 | 0.584 | 0.586 | 0.707 | 0.467 | 0.454 | 1.09 | 1.09 | 1.1 | 0.938 | 1.03
6 | IA-LM | 0.58 | 0.627 | 0.762 | 0.536 | 0.56 | 0.761 | 0.768 | 0.908 | 0.787 | 0.959 |  |  |  |  |  | 1.28 | 1.13 | 1.21 | 1.13 | 1.15
7 | LCLC-103H | 1.18 | 1.15 | 0.963 | 1.06 | 1.06 |  |  |  |  |  | 1.07 | 0.896 | 0.986 | 0.971 | 0.963 | 0.883 | 0.745 | 0.702 | 0.652 | 0.748
8 | NCI-H358 | 0.792 | 0.721 | 0.752 | 0.551 | 0.663 |  |  |  |  |  | 0.37 | 0.255 | 0.424 | 0.204 | 0.439 | 0.631 | 0.688 | 0.647 | 0.573 | 0.79
9 | NCI-H522 |  |  |  |  |  |  |  |  |  |  | 1.18 | 1.14 | 1.1 | 1.12 | 1.17 |  |  |  |  | 
10 | NCI-H650 | 0.906 | 0.867 | 0.992 | 0.883 | 0.895 |  |  |  |  |  | 0.673 | 0.874 | 0.865 | 0.793 | 0.946 | 1.06 | 1.05 | 1.04 | 0.961 | 1.07
11 | NCI-H661 | 0.624 | 0.53 | 0.599 | 0.458 | 0.534 |  |  |  |  |  | 0.928 | 0.938 | 0.951 | 1.01 | 0.87 | 1.03 | 0.986 | 1.03 | 0.873 | 1.05
12 | NCI-H1299 | 1.01 | 0.987 | 0.941 | 1.05 | 1.04 | 1.02 | 1.06 | 0.97 | 1.06 | 1.02 |  |  |  |  |  | 1.09 | 1.07 | 1.07 | 1.05 | 1.12
13 | NCI-H1563 | 1.27 | 1.22 | 1.24 | 1.11 | 1.08 |  |  |  |  |  | 0.585 | 0.537 | 0.577 | 0.492 | 0.542 | 0.901 | 0.977 | 1.02 | 0.89 | 0.992
14 | NCI-H1650 |  |  |  |  |  | 1.25 | 1.08 | 1.29 | 1.19 | 1.14 | 0.187 | 0.203 | 0.219 | 0.228 | 0.191 | 1.07 | 1.23 | 1.06 | 1.24 | 1.13
15 | NCI-H1703 | 1.18 | 0.978 | 0.736 | 0.559 | 0.166 | 1.49 | 1.21 | 1.25 | 1.1 | 1.25 |  |  |  |  |  |  | 0.327 | 0.333 | 0.36 | 0.393
16 | NCI-H1792 | 0.53 | 0.519 | 0.519 | 0.544 | 0.408 | 0.377 | 0.613 | 0.834 | 0.629 | 0.625 | 0.52 | 0.354 | 0.371 | 0.443 | 0.366 |  |  |  |  | 
17 | NCI-H2170 |  |  |  |  |  | 0.595 | 0.54 | 0.674 |  | 0.564 | 0.603 | 0.729 | 0.682 | 0.403 | 0.719 | 0.994 | 0.978 | 1.1 | 0.928 | 0.984
18 | NCI-H2342 |  |  |  |  |  |  |  |  |  |  | 0.604 | 0.68 | 0.679 | 0.552 | 1.09 | 1.11 | 1.11 | 1.05 | 0.978 | 1.12
